Converted amounts (≈) assume the structure as drawn.
Legend:
cancer cells = conditions: apparently by amino acid transport system uptake; cited from earlier work
[1] = pH 7.4; background statement; cited from earlier work

Description for physchem: For solubility determinations, an excess of BPA was always used. All formulations were sonicated (ultrasonic wave treatment), adjusted to a final pH of 7.4, and filtered through a 0.22 micron filter. The BPA concentration of filtered solutions was calculated from B levels which were measured by inductively coupled plasma atomic emission spectrometry. […] Unless otherwise specified, BPA and B levels are reported as mean±standard error of the mean (SEM) of three experiments.

Q: What does the source list for NC(Cc1ccc(B(O)O)cc1)C(=O)O (stereo not shown) [BPA, P-boronophenylalanine]?
A: selective accumulation in cancer cells (cancer cells): does seem to selectively accumulate in cancer cells; solubility (physchem; buffer, pH 7.4, aqueous buffer): 2200 ± 400 µg/mL (≈ 10.5 mM); solubility (physchem; water, pH 7.4, water): 1150 to 3700 µg/mL (≈ 5.5 to 17.7 mM); water solubility at physiological pH [1]: < 4 ppm
